In US12350269B2 (Alexion Pharmaceuticals, Inc., priority 2015, dated 2025):

Legend:
Zap70 = test: Healthy normal human whole blood assay: T-cell, TCR stimulation, pERK Y204 readout; type: cell-based
JAK1/TYK2 = test: Healthy normal human whole blood assay: Monocytes, IL6 stimulation, pSTAT3 Y705 readout; type: cell-based; details: Monocyte
SYK [1] = test: Healthy normal human whole blood assay: B-cell, BCR stimulation, pERK Y204 readout; type: cell-based
SYK [2] = test: Healthy normal human whole blood assay: B-cell, BCR stimulation, CD69 readout; type: cell-based
TYK2 = target: T1, TYK2 (Homo sapiens, UniProt P29597); test: Purified kinase assay (Millipore); type: biochemical; details: 300 nM ATP
T1 construct: purchased Millipore
T1 sequence (P29597 whole entry): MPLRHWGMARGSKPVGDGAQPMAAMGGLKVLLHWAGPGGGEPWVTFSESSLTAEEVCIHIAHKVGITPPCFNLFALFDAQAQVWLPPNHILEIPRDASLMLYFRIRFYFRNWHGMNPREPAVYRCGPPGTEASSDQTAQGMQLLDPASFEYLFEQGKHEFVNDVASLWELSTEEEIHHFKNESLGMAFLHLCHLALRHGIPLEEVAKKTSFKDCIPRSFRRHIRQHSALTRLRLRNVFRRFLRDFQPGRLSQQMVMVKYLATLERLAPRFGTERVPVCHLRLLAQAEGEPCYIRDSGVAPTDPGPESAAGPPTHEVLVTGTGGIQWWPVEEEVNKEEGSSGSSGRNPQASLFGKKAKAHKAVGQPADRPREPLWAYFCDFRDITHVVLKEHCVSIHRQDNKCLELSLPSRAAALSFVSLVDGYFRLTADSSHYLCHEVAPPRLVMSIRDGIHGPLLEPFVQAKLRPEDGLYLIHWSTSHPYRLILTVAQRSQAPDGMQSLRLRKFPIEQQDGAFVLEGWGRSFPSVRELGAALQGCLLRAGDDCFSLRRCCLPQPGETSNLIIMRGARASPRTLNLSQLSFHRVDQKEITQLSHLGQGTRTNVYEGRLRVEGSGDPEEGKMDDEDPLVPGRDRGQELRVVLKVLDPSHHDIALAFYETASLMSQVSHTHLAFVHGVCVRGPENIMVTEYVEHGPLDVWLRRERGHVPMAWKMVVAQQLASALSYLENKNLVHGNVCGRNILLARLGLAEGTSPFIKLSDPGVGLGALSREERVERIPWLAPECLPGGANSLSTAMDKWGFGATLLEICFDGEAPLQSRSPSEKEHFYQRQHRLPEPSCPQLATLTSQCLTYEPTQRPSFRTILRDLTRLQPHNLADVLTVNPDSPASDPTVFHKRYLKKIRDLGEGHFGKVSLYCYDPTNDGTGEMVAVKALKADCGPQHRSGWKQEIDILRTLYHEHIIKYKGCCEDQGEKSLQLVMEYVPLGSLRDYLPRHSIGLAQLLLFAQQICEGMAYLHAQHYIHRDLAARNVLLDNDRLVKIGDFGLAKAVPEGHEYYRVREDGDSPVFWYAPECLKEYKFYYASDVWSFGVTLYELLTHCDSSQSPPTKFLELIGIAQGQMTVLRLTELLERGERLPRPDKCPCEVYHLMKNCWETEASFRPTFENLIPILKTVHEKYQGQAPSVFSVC
Procedure: (§1) Purified Kinase Assays: Performed at Millipore at a fixed concentration of 300 nM ATP. A 10-point concentration curve was used to determine IC (Inhibitory Concentration).

CHK1 = target: T2, CHK1 (Homo sapiens, UniProt O14757); test: Purified kinase assay (Millipore); type: biochemical; details: 300 nM ATP
T2 construct: purchased Millipore
T2 sequence (O14757 whole entry): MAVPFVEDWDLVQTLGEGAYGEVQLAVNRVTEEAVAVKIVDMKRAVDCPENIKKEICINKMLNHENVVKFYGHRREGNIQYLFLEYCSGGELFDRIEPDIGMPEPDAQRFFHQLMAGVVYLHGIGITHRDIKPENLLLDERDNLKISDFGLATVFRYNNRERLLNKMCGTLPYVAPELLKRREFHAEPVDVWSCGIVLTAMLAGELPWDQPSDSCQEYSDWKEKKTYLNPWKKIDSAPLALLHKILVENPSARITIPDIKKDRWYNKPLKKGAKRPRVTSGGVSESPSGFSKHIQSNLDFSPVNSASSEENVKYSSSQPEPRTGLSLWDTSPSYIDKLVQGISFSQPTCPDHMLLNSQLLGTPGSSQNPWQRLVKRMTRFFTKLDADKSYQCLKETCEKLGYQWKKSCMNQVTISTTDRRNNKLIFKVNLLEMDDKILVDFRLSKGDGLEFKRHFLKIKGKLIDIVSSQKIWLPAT
Procedure: as §1

FLT4 = target: T3, FLT4 (Homo sapiens, UniProt P35916); test: Purified kinase assay (Millipore); type: biochemical; details: 300 nM ATP
T3 construct: purchased Millipore
T3 sequence (P35916 25-1363): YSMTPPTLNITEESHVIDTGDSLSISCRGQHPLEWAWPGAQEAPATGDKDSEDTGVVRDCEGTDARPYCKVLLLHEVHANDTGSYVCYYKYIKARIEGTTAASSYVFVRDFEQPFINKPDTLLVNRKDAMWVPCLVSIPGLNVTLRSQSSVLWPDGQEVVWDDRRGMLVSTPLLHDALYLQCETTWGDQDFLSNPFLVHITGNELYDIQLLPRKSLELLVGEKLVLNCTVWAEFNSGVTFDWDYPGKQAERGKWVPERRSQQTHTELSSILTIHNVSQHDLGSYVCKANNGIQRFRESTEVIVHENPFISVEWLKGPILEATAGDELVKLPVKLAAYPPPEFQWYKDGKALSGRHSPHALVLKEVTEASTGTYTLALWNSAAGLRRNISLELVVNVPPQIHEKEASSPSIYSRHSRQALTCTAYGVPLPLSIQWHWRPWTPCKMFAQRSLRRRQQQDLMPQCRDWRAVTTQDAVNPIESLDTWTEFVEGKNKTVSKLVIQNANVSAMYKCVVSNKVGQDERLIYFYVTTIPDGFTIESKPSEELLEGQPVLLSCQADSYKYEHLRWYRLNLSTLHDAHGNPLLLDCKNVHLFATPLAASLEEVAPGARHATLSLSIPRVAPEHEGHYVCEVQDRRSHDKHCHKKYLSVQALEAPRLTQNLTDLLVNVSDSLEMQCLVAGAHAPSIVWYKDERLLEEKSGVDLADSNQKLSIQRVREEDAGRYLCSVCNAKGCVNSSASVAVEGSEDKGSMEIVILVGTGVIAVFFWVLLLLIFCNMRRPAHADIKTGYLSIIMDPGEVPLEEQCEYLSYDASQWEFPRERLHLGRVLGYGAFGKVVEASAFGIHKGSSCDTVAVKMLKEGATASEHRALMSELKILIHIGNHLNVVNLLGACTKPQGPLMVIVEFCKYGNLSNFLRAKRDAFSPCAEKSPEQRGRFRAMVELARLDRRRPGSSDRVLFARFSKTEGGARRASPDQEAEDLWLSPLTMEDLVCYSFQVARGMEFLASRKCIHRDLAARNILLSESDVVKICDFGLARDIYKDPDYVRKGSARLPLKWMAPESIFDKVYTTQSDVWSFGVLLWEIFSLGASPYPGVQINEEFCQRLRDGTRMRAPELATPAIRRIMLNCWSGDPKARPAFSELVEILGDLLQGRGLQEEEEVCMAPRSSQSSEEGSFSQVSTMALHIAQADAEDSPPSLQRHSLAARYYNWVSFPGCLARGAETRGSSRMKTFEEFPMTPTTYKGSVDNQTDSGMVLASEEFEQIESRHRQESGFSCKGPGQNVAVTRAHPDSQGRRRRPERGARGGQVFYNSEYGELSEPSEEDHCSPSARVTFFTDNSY
Procedure: as §1

FMS = target: T4, FMS (Homo sapiens, UniProt P07333); test: Purified kinase assay (Millipore); type: biochemical; details: 300 nM ATP
T4 construct: purchased Millipore
Procedure: as §1

FLT3 = target: T5, FLT3 (Homo sapiens, UniProt P36888); test: Purified kinase assay (Millipore); type: biochemical; details: 300 nM ATP
T5 construct: purchased Millipore
Procedure: as §1

MARK1 = target: T6, MARK1 (Homo sapiens, UniProt Q9P0L2); test: Purified kinase assay (Millipore); type: biochemical; details: 300 nM ATP
T6 construct: purchased Millipore
T6 sequence (Q9P0L2 whole entry): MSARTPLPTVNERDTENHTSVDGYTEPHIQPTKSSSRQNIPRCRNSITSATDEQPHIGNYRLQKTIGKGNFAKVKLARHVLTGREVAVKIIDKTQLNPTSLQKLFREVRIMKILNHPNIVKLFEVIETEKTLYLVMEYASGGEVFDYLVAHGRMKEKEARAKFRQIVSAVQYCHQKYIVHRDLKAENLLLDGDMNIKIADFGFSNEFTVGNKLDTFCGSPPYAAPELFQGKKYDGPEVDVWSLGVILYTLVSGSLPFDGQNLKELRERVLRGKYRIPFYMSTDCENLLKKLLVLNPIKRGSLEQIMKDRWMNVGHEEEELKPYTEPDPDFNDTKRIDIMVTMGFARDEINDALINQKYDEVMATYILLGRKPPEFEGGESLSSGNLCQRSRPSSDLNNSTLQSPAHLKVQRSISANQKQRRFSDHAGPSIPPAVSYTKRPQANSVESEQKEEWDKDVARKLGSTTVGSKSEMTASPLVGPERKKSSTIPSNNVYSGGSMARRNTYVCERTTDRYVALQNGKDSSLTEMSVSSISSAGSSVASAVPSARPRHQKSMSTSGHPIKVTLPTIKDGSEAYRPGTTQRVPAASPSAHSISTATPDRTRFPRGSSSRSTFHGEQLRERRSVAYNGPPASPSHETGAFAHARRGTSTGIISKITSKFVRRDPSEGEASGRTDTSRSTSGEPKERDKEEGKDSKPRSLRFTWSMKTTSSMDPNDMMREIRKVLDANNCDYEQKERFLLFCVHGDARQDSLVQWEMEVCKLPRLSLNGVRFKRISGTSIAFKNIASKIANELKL
Procedure: as §1

RSK2 = target: T7, RSK2 (Homo sapiens, UniProt P51812); test: Purified kinase assay (Millipore); type: biochemical; details: 300 nM ATP
T7 construct: purchased Millipore
Procedure: as §1

PAR1B-a = target: T8, PAR1B-a (Homo sapiens, UniProt Q7KZI7); test: Purified kinase assay (Millipore); type: biochemical; details: 300 nM ATP
T8 construct: purchased Millipore
Procedure: as §1

ITK = target: T9, ITK (Homo sapiens, UniProt Q08881); test: Purified kinase assay (Millipore); type: biochemical; details: 300 nM ATP
T9 construct: purchased Millipore
Procedure: as §1

ARK5 = target: T10, ARK5 (Homo sapiens, UniProt O60285); test: Purified kinase assay (Millipore); type: biochemical; details: 300 nM ATP
T10 construct: purchased Millipore
Procedure: as §1

RET = target: T11, RET (Homo sapiens, UniProt P07949); test: Purified kinase assay (Millipore); type: biochemical; details: 300 nM ATP
T11 construct: purchased Millipore
T11 sequence (P07949 29-1114): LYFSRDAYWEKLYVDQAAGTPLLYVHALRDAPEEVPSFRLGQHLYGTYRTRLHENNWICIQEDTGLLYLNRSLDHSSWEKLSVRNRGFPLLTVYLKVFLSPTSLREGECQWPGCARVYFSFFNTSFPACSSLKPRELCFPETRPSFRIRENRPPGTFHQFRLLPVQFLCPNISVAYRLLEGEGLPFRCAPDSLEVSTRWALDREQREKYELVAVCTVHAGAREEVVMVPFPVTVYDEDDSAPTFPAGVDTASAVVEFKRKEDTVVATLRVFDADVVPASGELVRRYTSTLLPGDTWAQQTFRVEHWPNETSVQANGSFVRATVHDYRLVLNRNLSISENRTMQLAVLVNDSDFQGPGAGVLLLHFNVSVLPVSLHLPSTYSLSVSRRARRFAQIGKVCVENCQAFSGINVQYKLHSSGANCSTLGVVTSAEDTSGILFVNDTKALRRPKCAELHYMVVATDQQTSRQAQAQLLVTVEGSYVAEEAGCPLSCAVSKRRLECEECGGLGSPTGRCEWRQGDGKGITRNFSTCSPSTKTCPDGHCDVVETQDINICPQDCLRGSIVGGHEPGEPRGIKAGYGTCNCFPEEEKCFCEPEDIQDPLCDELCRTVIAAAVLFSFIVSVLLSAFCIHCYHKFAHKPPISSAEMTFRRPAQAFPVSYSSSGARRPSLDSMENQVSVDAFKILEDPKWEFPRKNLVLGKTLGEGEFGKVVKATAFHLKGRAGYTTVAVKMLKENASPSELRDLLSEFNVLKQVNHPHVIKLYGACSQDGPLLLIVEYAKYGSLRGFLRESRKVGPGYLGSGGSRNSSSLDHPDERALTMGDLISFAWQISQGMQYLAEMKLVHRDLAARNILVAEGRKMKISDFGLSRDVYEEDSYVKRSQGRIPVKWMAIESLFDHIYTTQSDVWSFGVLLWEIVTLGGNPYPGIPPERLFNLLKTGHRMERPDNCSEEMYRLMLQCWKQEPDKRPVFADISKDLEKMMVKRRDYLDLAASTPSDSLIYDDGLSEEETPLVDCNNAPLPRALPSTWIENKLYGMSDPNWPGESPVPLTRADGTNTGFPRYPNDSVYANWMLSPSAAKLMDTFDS
Procedure: as §1

GCK = target: T12, GCK (Homo sapiens, UniProt Q12851); test: Purified kinase assay (Millipore); type: biochemical; details: 300 nM ATP
T12 construct: purchased Millipore
Procedure: as §1

MST1 = target: T13, MST1 (Homo sapiens, UniProt Q13043); test: Purified kinase assay (Millipore); type: biochemical; details: 300 nM ATP
T13 construct: purchased Millipore
Procedure: as §1

RSK4 = target: T14, RSK4 (Homo sapiens, UniProt Q9UK32); test: Purified kinase assay (Millipore); type: biochemical; details: 300 nM ATP
T14 construct: purchased Millipore
Procedure: as §1

MST2 = target: T15, MST2 (Homo sapiens, UniProt Q13188); test: Purified kinase assay (Millipore); type: biochemical; details: 300 nM ATP
T15 construct: purchased Millipore
Procedure: as §1

MLK1 = target: T16, MLK1 (Homo sapiens, UniProt P80192); test: Purified kinase assay (Millipore); type: biochemical; details: 300 nM ATP
T16 construct: purchased Millipore
Procedure: as §1

[3] = system: serum inflammation markers (β2M, CRP, CCL4); test: Phase 1 study: serum markers of inflammation; type: in vivo, human
Procedure: Cytokine Analysis: Serum protein was analyzed by Myriad RBM (Austin, TX) using the Human Inflammation Map.
(§2) Pharmacokinetics (“PK”), pharmacodynamics (“PD”), and safety were monitored. Response was assessed by standard criteria. The level of inhibition of SYK and JAK was determined using a variety of whole blood assays measuring signaling via receptors for the B-cell antigen, IL2, IL4, IL6, and GM-CSF. Serum markers of tumor burden, including CCL3, CCL4, and other markers of inflammation (β2M and CRP), were also being measured.

TSSK = test: Purified kinase assay (Millipore); type: biochemical; details: 300 nM ATP
[4] = system: anti-IgM induced signalling pathways; test: Primary CLL cells: B cell receptor induced signalling (immunoblotting, flow cytometry); type: cell-based; details: primary human CLL cells
Procedure: Isolated CLL cells were cultured in RPMI-1640 with 15% fetal bovine serum (Gibco, Grand Island, NY, USA), penicillin (100 IU), and streptomycin (100 μg/mL), at a density of 1×10^7 cells/mL in the presence or absence of […] CpG, 100 ng/mL CD40L, 10 ng/mL IL-4. Anti-IgM stimulation was conducted with plate-bound anti-IgM (10 μg/mL). CLL cells were stimulated with 10 ng/mL IL-6 (R&D Systems, Minneapolis, MN), to detect the phosphorylation of JAK1/JAK2 (Cell Signaling Technology, Danvers, MA) and STAT3 (Cell Signaling Technology, Danvers, MA, USA).

IL4 signaling = test: Phase 1 study: whole blood PD, IL4 signaling; type: in vivo; details: Homo sapiens; 40 mg/day; read-out: % Inh. IL4 (Cmin-Cmax) Extrapolated from PK/PD fit of all data
Procedure: (§3) Human Whole Blood Assays: Inhibition of SYK- and JAK-dependent and independent signaling was determined by stimulating human whole blood with various agonists against BCR and cytokine receptors. 100 μL aliquots of heparinized healthy human whole blood was stimulated as previously described (Coffey et al, J. of Pharm. and Experimental Therapeutics, 351:538-548, 2014), using an 8-point concentration curve to determine IC50's. Signaling and activation responses were determined by Fluorescence-activated cell sorting (“FACS”). For the clinical trial, whole blood samples were collected prior to and after dosing. Percent inhibition was calculated by normalizing to the pre-dose stimulation response.
as §2

JAK1 = target: T17, JAK1 (Homo sapiens, UniProt P23458); test: Purified kinase assay (Millipore); type: biochemical; details: 300 nM ATP
T17 construct: purchased Millipore

GM-CSF signaling = test: Phase 1 study: whole blood PD, GM-CSF (JAK2) signaling; type: in vivo, human
Procedure: as §3, §2

JAK1/3 = test: Healthy normal human whole blood assay: B-cell, IL4 stimulation, pSTAT6 Y641 readout; type: cell-based
BCR signaling = test: Phase 1 study: whole blood PD, BCR signaling; type: in vivo, human
Procedure: as §3, §2

[5] = system: ibrutinib-sensitive primary CLL cells; test: BrdU proliferation assay, primary CLL cells of ibrutinib responders; type: cell-based, human; details: 250 nM, combined stimulation, day 8

In the case of `CCS(=O)(=O)N1CCN(c2ccc(Nc3ncc(C(N)=O)c(NC4CC4)n3)cc2)CC1` [cerdulatinib, 4-(cyclopropylamino)-2-(4-(4-(ethylsulfonyl)piperazin-1-yl)phenylamino)pyrimidine-5-carboxamide], the IC50 (Zap70) is reported as greater than 4000 nM, the IC50 (JAK1/TYK2) is reported as 350 nM and the IC50 (SYK [1]) is reported as 500 nM. The IC50 (SYK [2]) was 100 nM, the IC50 (TYK2) was 0.5 nM and the IC50 (CHK1) was 42 nM. For the same compound, the IC50 (FLT4) was 51 nM, the IC50 (FMS) was 5 nM and the IC50 (FLT3) was 90 nM. It also gave an IC50 (MARK1) of 10 nM, an IC50 (RSK2) of 20 nM and an IC50 (PAR1B-a) of 13 nM. For the same compound, the IC50 (ITK) was 194 nM, the IC50 (ARK5) was 4 nM and the IC50 (RET) was 105 nM. For the same compound, the IC50 (GCK) was 18 nM, the IC50 (MST1) was 4 nM and the IC50 (RSK4) was 28 nM. The IC50 (MST2) was 15 nM, the IC50 (MLK1) was 5 nM and the “inhibition of serum markers of inflammation” value ([3]; QD dosing of 40-100 mg) was “significant inhibition”. For the same compound, the “reduction of serum β2M (and other inflammation markers)” value ([3]; all dose levels tested clinically) was “Clear evidence for reduction”, the “inhibition of serum inflammation markers (e.g., β2M, CRP, CCL4)” value ([3]; day 28 of cycle 1, plasma about 0.6 to 1 μM) was 50-90% and the “serum proteins that are markers of inflammation (β2M, CRP, TNFR, CCL3/4)” value ([3]; patients) was “significantly reduced”. The IC50 (TSSK) was 14 nM, the “concentration (achievable in patients) at which BCR and IL-4 mediated signalling was overcome” value [4] was roughly 2.2 µM and the inhibition at 40 mg (IL4 signaling) was 63 to 78%. The IC50 (JAK1) was 12 nM, the “% Inhibition GM-CSF” value (GM-CSF signaling; Patient 2) was 0% and the “inhibition of JAK2 or PKC” value (GM-CSF signaling; patients) was “no inhibition”. The IC50 (JAK1/3) was 920 nM, the “% Inhibition of BCR (Cmin-Cmax)” value (BCR signaling; 40-100 mg QD doses) was 92-100% and the “inhibition of BCR signaling in whole blood” value (BCR signaling; FL patient, single 65 mg dose) was “complete inhibition”. For the same compound, the inhibition at 15 mg (BCR signaling; Homo sapiens, 15 mg/day, read-out: % Inh. BCR (Cmin-Cmax) Extrapolated from PK/PD fit of all data) was 22 to 55%, the inhibition at 30 mg (BCR signaling; Homo sapiens, 30 mg/day, read-out: % Inh. BCR (Cmin-Cmax) Extrapolated from PK/PD fit of all data) was 31 to 83% and the inhibition at 40 mg (BCR signaling; Homo sapiens, 40 mg/day, read-out: % Inh. BCR (Cmin-Cmax) Extrapolated from PK/PD fit of all data) was 92 to 100%. The inhibition at 100 mg (BCR signaling; Homo sapiens, 100 mg/day (one patient), read-out: % Inh. BCR (Cmin-Cmax) Extrapolated from PK/PD fit of all data) was 53 to 98%, the “% Inhibition BCR signaling” value (BCR signaling; Patient 1, 65 mg PO QD) was 100% and the “% Inhibition BCR signaling, pERK Y204” value (BCR signaling; Patient 2) was 0%. For the same compound, the “% Inhibition BCR signaling, pSYK Y525/525” value (BCR signaling; Patient 2) was 90%, the “BCR signaling pathway inhibition” value (BCR signaling; steady state Cmin/Cmax) was 90-100% and the “BrdU incorporation (proliferation)” value [5] was “responded equally well”.
